Experimental data reported in patent publication US9676708B2 (The Johns Hopkins University, priority 2012, dated 2017).
Where a name gives a salt, the structure may show the parent alone. Read-outs that look alike come from different tables or passages of the source.

Columns and labels:
[1] = HNO yield from N2O headspace analysis after complete decomposition, compared to 2BrPA; type: physicochemical; conditions: for % HNO: 37° C. in PBS (pH 7.4), N2O headspace analysis, reported in comparison to 2BrPA (SEM 5%; n = 3); for HNO production compared to 2BrPA: in words; for HNO yield: of the amount of HNO from 2BrPA
Source text: As used herein, a compound is a “nitroxyl donor” if it donates nitroxyl under physiological conditions. As used herein, the presently disclosed nitroxyl donors alternatively may be referred to as “a compound” or “the compound.” Preferably, the nitroxyl donor is capable of donating an effective amount of nitroxyl in vivo and has a safety profile indicating the compound would be tolerated by an individual in the amount necessary to achieve a therapeutic effect. One of ordinary skill in the art would be able to determine the safety of administering particular compounds and dosages to live subjects. One of skill in the art also may determine whether a compound is a nitroxyl donor by evaluating whether it releases HNO under physiological conditions. Compounds are easily tested for nitroxyl donation with routine experiments. Although it is impractical to directly measure whether nitroxyl is donated, several tests are accepted for determining whether a compound donates nitroxyl. For example, the compound of interest can be placed in solution, for example in water, in a sealed container. After sufficient time for disassociation has elapsed, such as from several minutes to several hours, the headspace gas is withdrawn and analyzed to determine its composition, such as by gas chromatography and/or mass spectroscopy. If the gas N2O is formed (which occurs by HNO dimerization), the test is positive for nitroxyl donation and the compound is a nitroxyl donor. The level of nitroxyl-donating ability may be expressed as a percentage of a compound's theoretical maximum. A compound that donates a “significant level of nitroxyl” intends a compound that donates 40% or more or 50% or more of its theoretical maximum amount of nitroxyl. In one variation, the compounds for use herein donate 60% or more of the theoretical maximum amount of nitroxyl. In another variation, the compounds for use herein donate 70% or more of the theoretical maximum amount of nitroxyl. In another variation, the compounds for use herein donate 80% or more of the theoretical maximum amount of nitroxyl. In another variation, the compounds for use herein donate 90% or more of the theoretical maximum amount of nitroxyl. In yet another variation, the compounds for use herein donate between about 70% and about 90% of the theoretical maximum amount of nitroxyl. In yet another variation, the compounds for use herein donate between about 85% and about 95% of the theoretical maximum amount of nitroxyl. In yet another variation, the compounds for use herein donate between about 90% and about 95% of the theoretical maximum amount of nitroxyl.

[2] = Decomposition of 2-bromo-benzenesulfonamidyl-alkylamino carbonates 2 (2BrPA release) in PBS, UV/vis or HPLC; type: physicochemical
Method: The donor 2BrPA produces HNO in high yield at pH 7.4 with a single defined half-life of approximately 2 minutes. See U.S. Pat. No. 8,030,356, to Toscano et al., which is incorporated herein by reference in its entirety. Changing (R) on the trigger amine or the spacer length (n) in 2 makes it possible to tune the effective HNO production rate through controlled 2BrPA release (Table 2). Donors 2, with release rates slower than the half-life of 2BrPA, produce HNO at the rate of cyclization. The decomposition products, rates, and HNO production were analyzed and compared to 2BrPA (Table 2).

[3] = Monitoring of 2d decomposition byproducts by NMR; type: physicochemical; conditions: decomposition of 2d
Source text: The cyclized byproduct 3, expected from an HNO forming pathway, from 2d, formed in approximately 60% yield (Scheme 4). The yield of 3 is consistent with the yield of HNO detected (64%) (Table 2). The cyclized product 5 also was identified and formed in approximately 10% yield. Another byproduct formed in approximately 30% yield.

[4] = pH 7.4; see U.S. Pat. No. 8,030,356; cited from earlier work

| SMILES | % HNO [1] [%] | HNO production compared to 2BrPA [1] | HNO yield [1] [%] | further results |
| --- | --- | --- | --- | --- |
| CNCCOC(=O)ONS(=O)(=O)c1ccccc1Br.Cl [Cmpd 2a, 2-Bromo-benzenesulfonamidyl-2-(methylamino)-ethyl carbonate hydrochlor-ide] | 93 |  |  |  |
| CC(C)NCCCOC(=O)ONS(=O)(=O)c1ccccc1Br.Cl [Cmpd 2h, 2-Bromo-benzenesulfonamidyl-3-(iso-propylamino)-propyl carbonate hydro-chloride] | 30 | significantly lower | 30 |  |
| COc1ccc(NCCOC(=O)ONS(=O)(=O)c2ccccc2Br)cc1 [hydrochloride] | 93 |  |  | half-life ([2]; 37° C. in PBS (pH 7.4), determined by UV/vis (SEM ± 5%; n = 3), read-out: t1/2 (converted)): 50 s; half-life ([2]; pH 7.4, fast-releasing derivatives (UV/vis values of Table 2), PBS buffer, read-out: half-life): 48 s |
| Cl.O=C(OCCNc1ccccc1)ONS(=O)(=O)c1ccccc1Br [Cmpd 2e, 2-Bromo-benzenesulfonamidyl-2-(phenylamino)-ethyl carbonate hydrochlo-ride] | 91 |  |  |  |
| CC(C)(C)NCCOC(=O)ONS(=O)(=O)c1ccccc1Br [Cmpd 2d, 2-Bromo-benzenesulfonamidyl-2-(tert-butylamino)-ethyl carbonate hydrochl-oride] | 64 | significantly lower | 64 | half-life ([2]; PBS, pH 7.4, 37° C. in PBS (pH 7.4), determined by HPLC (SEM ± 5%; n = 3), read-out: t1/2 (converted)): 2820 s; yield of another byproduct [3]: approximately 30%; yield of cyclized byproduct 3 (HNO forming pathway) [3]: approximately 60%; yield of cyclized product 5 [3]: approximately 10% |
| Cl.O=C(OCCNCc1ccccc1)ONS(=O)(=O)c1ccccc1Br [Cmpd 2b, 2-Bromo-benzenesulfonamidyl-2-(benzylamino)-ethyl carbonate hydrochlori-de] | 99 |  |  |  |
| CC(C)NCCOC(=O)ONS(=O)(=O)c1ccccc1Br [Cmpd 2c, 2-Bromo-benzenesulfonamidyl-2-(iso-propylamino)-ethyl carbonate hydroc-hloride] | 97 |  |  | half-life ([2]; PBS buffer, pH 7.4, text, fast-releasing derivatives (UV/vis values of Table 2), PBS buffer, read-out: half-life): < 60 s; half-life ([2]; PBS, pH 7.4, 37° C. in PBS (pH 7.4), determined by UV/vis (SEM ± 5%; n = 3), read-out: t1/2 (converted)): 47 s |
| O=C(OCCNc1ccc(Cl)cc1)ONS(=O)(=O)c1ccccc1Br [hydrochloride] | 69 | significantly lower | 69 | half-life ([2]; PBS, pH 7.4, slow-releasing derivatives (HPLC values of Table 2), read-out: half-life): 3000 s |
| O=S(=O)(NO)c1ccccc1Br [2BrPA, N-hydroxy-2-bromobenzenesulfonamide] |  |  |  | HNO production [4]: high yield |
